Source: patent US20130040908A1, “SUBSTITUTION DERIVATIVES OF N6-BENZYLADENOSINE-5' -MONOPHOSPHATE, METHODS OF PREPARATION THEREOF, USE THEREOF AS MEDICAMENTS, AND THERAPEUTIC PREPARATIONS CONTAINING THESE COMPOUNDS” (BIOAPEX, S.R.O., priority 2010, published 2013)

Experiments:
caspase-3 = assay: Caspase-3 activity in CEM cells (Apo-ONE kit); format: cell-based; details: 10 μM, 12 and 24 hours
Procedure: In the course of apoptosis, caspase cascade is activated. Caspase-3 is an effector caspase that plays a role in the induction of some changes typical for apoptosis (chromatin condensation, DNA fragmentation). Leukemia cell line CEM was cultured in cell culture medium (DMEM containing 5 g/l glucose, 2 mM glutamine, 100 U/ml peniciline, 100 μg/ml streptomycine, 10% fetal calf serum and sodium bicarbonate). 24 hours before treatment, cell suspensions were centrifuged, diluted to concentration of 500000 cells per ml with fresh medium and pipetted in 50 μl, aliquotes into 96-well plate. After 12 and 24 hours of incubation with the test compound, the activity of caspase-3 was measured using commercial kit (Apo-ONE, Promega) that is based on quantification of hydrolysis of fluorogenic substrate Z-DEVD-R110 (excitation 480 nm/emission 520 nm). Reaction specificity was confirmed in a control experiment, when both test compound and caspase-3 inhibitor Ac-DEVD-CHO were added. All experiments were done in triplicate.

Human lymphocytes = assay: Immunosuppressive activity, 3H-thymidine incorporation in concanavalin A activated lymphocytes; format: cell-based; details: 72 hours, [3H]-TdR
Excerpt: One of the most important parameters of specific cellular immunity is the proliferative response of lymphocytes to antigens or polyclonal mitogens. The majority of normal mammalian peripheral lymphocytes comprise resting cells. Antigens or nonspecific polyclonal mitogens have the capacity to activate lymphoid cells and this is accompanied by dramatic changes of intracellular metabolism (mitochondrial activity, protein synthesis, nucleic acids synthesis, formation of blastic cells and cellular proliferation). […] Variety of in vitro assays was developed to measure proliferative response of lymphocytes. The most commonly used is ^3H-thymidine incorporation method.
During cell proliferation, DNA has to be replicated before the cell is divided into two daughter cells. This close association between cell doublings and DNA synthesis is very attractive for assessing cell proliferation. If labelled DNA precursors are added to the cell culture, cells that are about to divide incorporate the labelled nucleotide into their DNA. Traditionally, those assays usually involve the use of radiolabelled nucleosides, particularly tritiated thymidine ([^3H]-TdR). The amount of [^3H]-TdR incorporated into the cellular DNA is quantified by liquid scintillation counting. Human heparinized peripheral blood was obtained from healthy volunteers by cubital vein punction. The blood was diluted in PBS (1:3) and mononuclear cells were separated by centrifugation in Ficoll-Hypaque density gradient (Pharmacia, 1.077 g/ml) at 2200 rpm for 30 minutes. Following centrifugation, lymphocytes were washed in PBS and resuspended in cell culture medium (RMPI 1640, 2 mM glutamine, 100 U/ml penicillin, 100 μg/ml streptomycin, 10% fetal calf serum and sodium bicarbonate).
The cells were diluted at target density of 1.100.000 cells/ml and were added by pipette (180 μl) into 96-well microtiter plates. Four-fold dilutions of the intended test concentration were added at time zero in 20 μl aliquots to the microtiter plate wells. Usually, test compound was evaluated at six 4-fold dilutions. In routine testing, the highest well concentration was 266.7 μM. All drug concentrations were examined in duplicates. All wells with exception of unstimulated controls were activated with 50 of concanavalin A (25 μg/ml). Incubations of cells with test compounds lasted for 72 hours at 37° C., in 5% CO2 atmosphere and 100% humidity. At the end of incubation period, the cells were assayed by using the [^3H]-TdR:
Cell cultures were incubated with 0.5 μCi (20 μl of stock solution 500 μCi/ml per well for 6 hours at 37° C. and 5% CO2. The automated cell harvester was used to lyse cells in water and adsorb the DNA onto glass-fiber filters in the format of microtiter plate. The DNA incorporated [^3H]-TdR was retained on the filter while unincorporated material passes through. The filters were dried at room temperature overnight, sealed into a sample bag with 10-12 ml of scintillant. The amount of [^3H]-TdR present in each filter (in cpm) was determined by scintillation counting in a Betaplate liquid scintillation counter. The effective dose of immunosuppressant (ED) was calculated using the following equation: ED=(CCPMdrug exposed well/mean CCPMcontrol wells)×100%. The ED50 value, the drug concentration inhibiting proliferation of 50% of lymphocytes, was calculated from the obtained dose response curves.

Leukemia cell line CEM = assay: Flow cytometry of DNA fragmentation (sub-G1) in CEM cells; format: cell-based; details: IC50, triple IC50 and fivefold IC50
Procedure: One of the hallmarks of apoptosis is fragmentation of DNA. It can be measured by flowcytometry of the cells stained with propidium iodide. Because the fragmentation results in a loss of a fraction of the nuclear DNA, apoptotic cells have a lower DNA content than cells in G1 phase of cell cycle and can be detected as a subG1 peak in the histogram.
Leukemia cell line CEM was cultured in cell culture medium (DMEM containing 5 g/l glucose, 2 mM glutamine, 100 U/ml peniciline, 100 μg/ml streptomycine, 10% fetal calf serum and sodium bicarbonate). 24 hours before treatment, cell suspensions were centrifuged, diluted with fresh medium to concentration of 100000 cells per ml with fresh medium and pipetted in 10 ml aliquotes Petri dishes. After an incubation for a given time period, the cells were collected by centrifugation (4° C., 600 g), washed with PBS (4° C.) and fixed with 70% ethanol at −20° C. overnight. Low molecular weight DNA fragmentse were extracted with citrate buffer (11.36 g trisodium citrate dihydrate/1). The nuclei were stained with the solution of propidium iodide in PBS (10 μg/ml) containing RNase A (60 IU per sample). After 1 hour incubation the samples were analyzed by flowcytometry (excitation 488 nm, emission above 620 nm).

P388D1 leukemia = assay: In vivo anticancer activity, survival model of P388D1 leukemia; details: oral 250 mg/kg twice daily
Procedure: Screening of biological activity of compound 21 was performed on survival model of P388D1 leukemia transplanted intraperitoneally with 2.10^5 cells. DBA-2 mice were used as a host. One day following the leukemia transplantation, treatment with 21 was initiated. The drug was given orally by gastric gavages in total volume of 200 μl/dose twice daily at dose 250 mg/kg in two chemotherapy cycles (Days 1-3 and 7-9). The compound 21 was solubilized in 5% […], 30% polyethylene glycol 400, 65% tartar buffer (pH 3.0). Survival analysis of treated animals (10 mice/group) was preformed in comparison with vehicle treated mice using Kaplan-Meier method and the significance was evaluated by the log-rank test. Body weight of experimental animals was evaluated in parallel in order to reflect toxicity and efficacy of therapy. Comparative analysis of body weight was performed using non-parametric t-test.

p21^WAF-1 = assay: p21WAF-1 induction in MCF-7 cells (immunoblot); format: cell-based; details: MCF-7, 0-100 μM 12 hours; 1 μM 0.5-24 hours
Procedure: MCF-7 cells cultured at 37° C. in 5% CO2 atmosphere in DMEM medium supplemented with 10% foetal calf serum were treated with compound 28 concentration ranges of 0-100 μM. Compound 28 was added into the medium from the 100 mM stock solution in DMSO. Cells were harvested 12 hours after incubation with compound 28, centrifuged (1000 rpm, 4° C., 5 min), washed twice by ice-cold PBS and re-centrifuged. These washed cells were then lysed by 1×CSB (loading buffer for SDS-PAGE, i.e. electrophoresis of proteins in polyacrylamide gel containing SDS). Cell lysate proteins were separated by SDS-PAGE and transferred onto a nitrocelulose (NC) membrane. NC membrane was blocked by 5% skimmed milk, 0.1% Tween 20 in PBS. Protein level of p21^WAF-1 and actin (as a loaded protein volume control) were detected immunochemically using commercially available specific monoclonal antibodies anti-p21^WAF-1 (Ab-1, Calbiochem) and anti-Actin (Clone AC-40, Sigma-Aldrich). The primary antibodies bind to target proteins were detected using rabbit secondary peroxidase-labeled antibody (RAM-Px, DAKO), followed by chemiluminiscence (ECL, Amersham-Pharmacia).

Structure (SMILES): O=P(O)(O)OC[C@H]1O[C@@H](n2cnc3c(NCc4ccccc4O)ncnc32)[C@H](O)[C@@H]1O [Compound 21, 6-(2-hydroxybenzylamino)purine riboside-5′-monophosphate]
- activity of caspase-3 (caspase-3): activates caspase-3
- Human lymphocytes ED50 (Human lymphocytes): 6.7 µM
- DNA fragmentation (apoptotic sub-G1 fraction) (Leukemia cell line CEM): induction of DNA fragmentation
- body weight of treated animals (P388D1 leukemia): only slight reduction
- tolerability in animals (P388D1 leukemia): good tolerability
- mean survival time (P388D1 leukemia; Days 1-3 and 7-9, vehicle group 13.9 days): 15.4 days
- survival analysis (Kaplan-Meier, log-rank) (P388D1 leukemia; P=0.0409 versus vehicle): significantly better survival

Structure (SMILES): COc1cccc(CNc2ncnc3c2ncn3[C@@H]2O[C@H](COP(=O)(O)O)[C@@H](O)[C@H]2O)c1O [Compound 28, 6-(2-hydroxy-3-methoxybenzylamino)purine riboside-5′-monophosphate]
- Human lymphocytes ED50 (Human lymphocytes): 1.2 µM
- p21^WAF-1 protein induction (p21^WAF-1): efficient p21^WAF-1 protein induction
